Data: PMC5049785, “Characterization of Novel Antimalarial Compound ACT-451840: Preclinical Assessment of Activity and Dose–Efficacy Modeling” (PLoS Medicine, 2016)
pIC50: −log10 of the molar value.

Experiments:
[1] = General oral toxicity study up to 4 wk, rats; assay type: in vivo
[2] = test system: GFP-transfected P. berghei ANKA strain; assay: In vivo efficacy, P. berghei mouse model; set-up: species or system Plasmodium berghei in female NMRI mice; conditions: for infected mice cured: no detectable parasites on Day 30, n=5
Method: In vivo efficacy against P. berghei was conducted at the Swiss TPH as previously described, with the modification that female NMRI mice from Harlan (Horst, The Netherlands) (n = 3) were infected with a GFP-transfected P. berghei ANKA strain (kindly donated by A. P. Waters and C. J. Janse, Leiden University Medical Center, The Netherlands) and parasitemia was determined using standard flow cytometry techniques. ACT-451840 was dissolved or suspended in corn oil before dosing and administered 24 h after infection (single-dose regimen) or 24, 48, and 72 h after infection (triple-dose regimen). With the single-dose regimen, blood was collected on Day 3 (72 h after infection). Samples for the triple-dose regimens were collected on Day 4 (96 h after infection). Antimalarial activity was calculated as the difference between the mean percent parasitemia for the control and treated groups expressed as a percent relative to the control group, consisting of five mice. Control mice were euthanized on Day 4 in order to prevent death typically occurring on Day 6. For the consistency in PK/PD modeling, Day 5 instead of Day 6 was considered the day of death, because treated animals were always euthanized one day before their natural death for animal welfare reasons. Animals were considered cured if there were no detectable parasites on Day 30 post-infection. To confirm the reliability of this assumption, blood from the surviving mice in curative experiments was inoculated into uninfected mice, and no parasitemia developed in these mice even after 30 d. The antimalarial efficacy is defined either as antimalarial activity or as survival: the two readouts of the P. berghei murine model.

[3] = Effect of formulation and food on oral pharmacokinetics in dogs; assay type: in vivo; conditions: for AUC0-∞ geometric mean / Cmax geometric mean: dogs
Method: The fumarate salt of ACT-451840 was administered orally at 10 mg/kg to fasted and fed male dogs (100 mg/dog, n = 4) as a suspension in an aqueous vehicle containing 0.5% (w/w) methylcellulose.

[4] = test system: P. falciparum NF54 male gametocytes; assay: P. falciparum dual gamete formation assay, male; assay type: cell-based, Plasmodium falciparum; conditions: 24 h incubation; ± SD; read-out: IC50 male gamete formation (exflagellation centers)
Method: Mature P. falciparum NF54 gametocytes were cultured at Imperial College London (London, United Kingdom), as previously described. […] Male gamete formation was quantified by computer-aided automated identification and counting of exflagellation centers. Female gamete formation was visualized by live immunofluorescence with a Cy3-conjugated antibody specific for Pfs25—a female gamete expressed surface protein. […] IC50 values were calculated using GraphPad Prism version 6 using the logarithmic versus normalized response (variable slope) function (Graphpad Software, San Diego, US).

[5] = single-dose regimen, oral 10 mg/kg
[6] = single-dose regimen, oral 15 mg/kg
[7] = single-dose regimen, oral 20 mg/kg
[8] = single-dose regimen, oral 25 mg/kg
[9] = single-dose regimen, oral 30 mg/kg
[10] = single-dose regimen, oral 60 mg/kg
[11] = single-dose regimen, oral 80 mg/kg
[12] = single-dose regimen, oral 100 mg/kg
[13] = single-dose regimen, oral 300 mg/kg
[14] = triple-dose regimen, oral 3 mg/kg once per day
[15] = triple-dose regimen, oral 50 mg/kg once per day
[16] = triple-dose regimen, oral 100 mg/kg once per day
[17] = triple-dose regimen, oral 300 mg/kg once per day
[18] = triple-dose regimen, oral 2 x 15 mg/kg (twice per day)
[19] = triple-dose regimen, oral 2 x 30 mg/kg (twice per day)
[20] = 100 mg oral, aqueous suspension, fasted
[21] = fumarate salt 100 mg oral, aqueous suspension containing 0.5% methylcellulose, fasted
[22] = fumarate salt 100 mg oral, aqueous suspension containing 0.5% methylcellulose, fed
[23] = methylcellulose suspension, higher in fed

Compound: CC(=O)N1CCN(c2ccc(CN(C(=O)/C=C/c3ccc(C(C)(C)C)cc3)[C@@H](Cc3ccccc3)C(=O)N3CCN(Cc4ccc(C#N)cc4)CC3)cc2)CC1 [ACT-451840]
- no-observed-adverse-effect level ([1]; oral): 100 mg/kg/day
- local gastrointestinal toxicity ([1]; oral up to 2,000 mg/kg/day): no evidence of local gastrointestinal toxicity
- infected mice cured ([2]; 100 mg/kg triple-dose regimen): 20%
- infected mice cured ([2]; 300 mg/kg triple-dose regimen): 100%
- ED90 ([2]; oral triple-dose regimen, calculated from data in S2 Text): 13 mg/kg
- Antimalarial activity (%) [2, 5]: 21.75%
- Survival [2, 5]: 5.0 days
- Antimalarial activity (%) [2, 6]: 39.00%
- Survival [2, 6]: 5.0 days
- Antimalarial activity (%) [2, 7]: 76.23%
- Survival [2, 7]: 7.0 days
- Antimalarial activity (%) [2, 8]: 90.29%
- Survival [2, 8]: 6.7 days
- Antimalarial activity (%) [2, 9]: 97.42%
- Survival [2, 9]: 7.9 days
- Antimalarial activity (%) [2, 10]: 99.40%
- Survival [2, 10]: 13.7 days
- Antimalarial activity (%) [2, 11]: 98.88%
- Survival [2, 11]: 12.7 days
- Antimalarial activity (%) [2, 12]: 99.19%
- Survival [2, 12]: 12.4 days
- Antimalarial activity (%) [2, 13]: 98.84%
- Survival [2, 13]: 15.7 days
- Antimalarial activity (%) [2, 14]: 0.00%
- Survival [2, 14]: 6.0 days
- Antimalarial activity (%) ([2]; triple-dose regimen, oral 10 mg/kg once per day): 32.25%
- Antimalarial activity (%) ([2]; triple-dose regimen, oral 30 mg/kg once per day): 99.53%
- Antimalarial activity (%) [2, 15]: 99.78%
- Survival [2, 15]: 15.6 days
- Antimalarial activity (%) [2, 16]: 99.84%
- Survival [2, 16]: 21.8 days
- Antimalarial activity (%) [2, 17]: 99.78%
- Survival [2, 17]: 30.0 days
- Antimalarial activity (%) [2, 18]: 99.06%
- Survival [2, 18]: 9.0 days
- Antimalarial activity (%) [2, 19]: 99.81%
- Survival [2, 19]: 14.6 days
- AUC0-∞ geometric mean [3, 20]: 120 ng·h/mL
- Cmax geometric mean [3, 20]: 26.2 ng/mL
- AUC0-∞ geometric mean [3, 21]: 304 ng·h/mL
- Cmax geometric mean [3, 21]: 46.2 ng/mL
- AUC0-∞ geometric mean [3, 22]: 1720 ng·h/mL
- Cmax geometric mean [3, 22]: 171 ng/mL
- AUC fed dogs versus fasted dogs [3, 23]: 5.7 fold
- Cmax fed dogs versus fasted dogs [3, 23]: 3.7 fold
- pIC50 [4]: 8.23
